Test results reported in US20090312406A1, “COUMARIN COMPOUNDS AND THEIR USE FOR TREATING VIRAL INFECTION” (priority 2008, published 2009).
Where two headings read alike, the source gives them in different places.

Test system: Influenza A/WSN/33 (H1N1) virus
Test: In vitro anti-influenza virus assay (neutralization test), cytopathic effect on MDCK cells
Format: cell-based
Conditions: MDCK cells, 72 h, read-out: IC50 (concentration reducing virus-induced cytopathic effect by 50%)
Description: Anti-influenza activities of the coumarin compounds were evaluated by measuring the ability of a test compound to inhibit the cytopathic effect induced by an influenza virus on MDCK cells. The 96-well tissue culture plates were seeded with 200 μL of MDCK cells at a concentration of 1.1×10^5 cells/mL in DMEM with 10% fetal bovine serum (FBS). The plates were incubated for 24-30 h at 37° C. and were used at about 90% confluency. Influenza A/WSN/33 (H1N1) virus (100 TCID50) was added to the cells and incubated at 35° C. for 1 h. After adsorption, the infected cell plates were overlaid with 50 μL of DMEM plus 2% FBS and a test compound with different concentrations. The plate was incubated at 35° C. for 72 h. At the end of incubation, the plates were fixed by the addition of 100 μL of 4% formaldehyde for 1 h at room temperature. After the removal of formaldehyde, the plates were stained with 0.1% crystal violet for 15 min at room temperature. The plates were washed and dried, and the density of the well was measured at 570 nm. The concentration required for a test compound to reduce the virus-induced cytopathic effect (CPE) by 50% relative to the virus control was expressed as IC50.
Compounds 1 and 95 were also tested on various influenza virus strains. Amantadine or Relenza was also tested for comparison. IC50 is defined as the concentration required for a test compound to reduce the virus-induced cytopathic effect (CPE) by 50% relative to the virus control.

[1] = lower bound (10 nM), upper in μM

SMILES | IC50 [1] | IC50 (ranges given)
Cc1cc(=O)oc2c1ccc1sc(C(=O)c3ccccc3)c(-c3ccccc3)c12 [Compound 26] | 10 to 999 nM | –
Cc1cc(=O)oc2c1ccc1oc(C(=O)c3cccc(OCCCCCCO[Si](C)(C)C(C)(C)C)c3)c(-c3ccccc3)c12 [Compound 193] | – | 1000 to 5900 nM
C#CCCC(=O)Oc1cccc(C(=O)c2oc3ccc4c(C)cc(=O)oc4c3c2-c2ccccc2)c1 [Compound 202] | – | 1000 to 5900 nM
Cc1cc(=O)oc2c1ccc1oc(C(=O)c3cccc(OCCCOC4OC(CO)C(O)C(O)C4O)c3)c(-c3ccccc3)c12 (stereo not drawn) [Compound 197] | – | 6000 to 25000 nM
Cc1cc(=O)oc2c1ccc1oc(C(=O)c3ccsc3)c(-c3ccccc3)c12 [Compound 96] | 10 to 999 nM | –
Cc1cc(=O)oc2c1ccc1oc(C(=O)c3ccc(Cl)cc3)c(-c3ccccc3)c12 [Compound 49] | – | 6000 to 25000 nM
Cc1cc(=O)oc2c1ccc1oc(C(=O)c3cccc(OCCOCCOCCO)c3)c(-c3ccccc3)c12 [Compound 177] | – | 6000 to 25000 nM
Cc1cc(=O)oc2c1ccc1oc(C(=O)c3ccccc3)c(-c3cccc(F)c3)c12 [Compound 133] | – | 1000 to 5900 nM
Cc1cc(=O)oc2c1cc(CC1CO1)c1oc(C(=O)c3ccccc3)c(-c3ccccc3)c12 (stereo not drawn) [Compound 18] | – | 1000 to 5900 nM
COc1ccc(C(=O)c2oc3ccc4c(C)cc(=O)oc4c3c2-c2ccccc2)c(OC)c1 [Compound 56] | – | 6000 to 25000 nM
Cc1cc(=O)oc2c1ccc1oc(C(O)c3ccccc3)cc12 (stereo not drawn) [Compound 226] | – | 1000 to 5900 nM
Cc1cc(=O)oc2c1ccc1oc(/C(=N/O)c3ccccc3)c(-c3ccccc3)c12 [Compound 171] | – | 1000 to 5900 nM
Cc1cc(=O)oc2c1ccc1oc(C(=O)c3cccc(OCCN(C)C)c3)c(-c3ccccc3)c12 [Compound 86] | – | 6000 to 25000 nM
Cc1cc(=O)oc2c1ccc1oc(C(=O)c3cccc(OCCO)c3)c(-c3ccccc3)c12 [Compound 184] | – | 6000 to 25000 nM
Cc1ccccc1C(=O)c1oc2ccc3c(C)cc(=O)oc3c2c1-c1ccccc1 [Compound 39] | – | 6000 to 25000 nM
Cc1cc(=O)oc2c1ccc1oc(C(=O)c3cccc([N+](=O)[O-])c3)c(-c3ccccc3)c12 [Compound 66] | – | 1000 to 5900 nM
COc1cccc(C(=O)c2oc3ccc4c(C)cc(=O)oc4c3c2-c2ccccc2)c1 [Compound 31] | 10 to 999 nM | –
CCCOc1cccc(C(=O)c2oc3ccc4c(C)cc(=O)oc4c3c2-c2ccccc2)c1 [Compound 69] | 10 to 999 nM | –
Cc1cc(=O)oc2c1ccc1oc(C(=O)c3ccccc3)c(-c3ccc4ccccc4c3)c12 [Compound 147] | – | 1000 to 5900 nM
Cc1cc(=O)oc2c1ccc1oc(C(=O)c3ccc4ccccc4c3)c(-c3ccc(F)cc3)c12 [Compound 220] | – | 1000 to 5900 nM
Cc1cc(=O)oc2c1ccc1oc(C(=O)c3cccc(Cl)c3)c(-c3ccccc3)c12 [Compound 48] | 10 to 999 nM | –
Cc1cc2oc(C(=O)c3ccccc3)c(-c3ccccc3)c2c2oc(=O)ccc12 [Compound 4] | – | 6000 to 25000 nM
COc1cccc(C(=O)c2oc3ccc4c(C)cc(=O)oc4c3c2-c2cccc(C)c2)c1 [Compound 247] | 10 to 999 nM | –

SMILES | IC50 [1] | IC50 (ranges given)
Cc1cc(=O)oc2c1ccc1oc(C(=O)c3cccs3)c(-c3ccc(Br)cc3)c12 [Compound 254] | – | 1000 to 5900 nM
CCCCCCOc1cccc(C(=O)c2oc3ccc4c(C)cc(=O)oc4c3c2-c2ccccc2)c1 [Compound 72] | 10 to 999 nM | –
Cc1cc(=O)oc2c1ccc1oc(C(=O)c3cccc(C#N)c3)c(-c3ccccc3)c12 [Compound 42] | – | 1000 to 5900 nM
Cc1cc(=O)oc2c1ccc1oc(C(=O)c3ccccc3)c(-c3cccc(N)c3)c12 [Compound 146] | 10 to 999 nM | –
COc1ccccc1C(=O)c1oc2ccc3c(C)cc(=O)oc3c2c1-c1ccccc1 [Compound 30] | 10 to 999 nM | –
Cc1cccc(C(=O)c2oc3ccc4c(C)cc(=O)oc4c3c2-c2ccccc2)c1 [Compound 40] | 10 to 999 nM | –
Cc1cc(=O)oc2c1ccc1oc(C(=O)c3cccc(OCC4CC4)c3)c(-c3ccccc3)c12 [Compound 179] | 10 to 999 nM | –
COc1cccc(C(=O)c2oc3ccc4c(C)cc(=O)oc4c3c2-c2ccc(Br)cc2)c1 [Compound 252] | 10 to 999 nM | –
Cc1cc(=O)oc2c1ccc1oc(C(=O)c3cccc(OCCCCCl)c3)c(-c3ccccc3)c12 [Compound 75] | 10 to 999 nM | –
Cc1cc(=O)oc2c1ccc1oc(C(=O)c3ccccc3)c(-c3ccc(O)cc3)c12 [Compound 239] | – | 1000 to 5900 nM
COc1cccc(C(=O)c2oc3ccc4c(C)cc(=O)oc4c3c2-c2ccccc2F)c1 [Compound 245] | 10 to 999 nM | –
CC(=O)OCC1C(OCCOc2cccc(C(=O)c3oc4ccc5c(C)cc(=O)oc5c4c3-c3ccccc3)c2)OC(OC(C)=O)C(OC(C)=O)C1OC(C)=O (stereo not drawn) [Compound 194] | – | 6000 to 25000 nM
Cc1cc(=O)oc2c1ccc1oc(C(=O)c3ccccc3)c(-c3cccc(C#N)c3)c12 [Compound 143] | 10 to 999 nM | –
Cc1cc(=O)oc2c1ccc1oc(C(=O)c3nccs3)c(-c3ccccc3)c12 [Compound 107] | 10 to 999 nM | –
Cc1cc2ccc3oc(C(=O)c4ccccc4)c(-c4ccccc4)c3c2oc1=O [Compound 3] | – | 1000 to 5900 nM
Cc1cc(=O)oc2c1ccc1oc(C(=O)c3cccc(Cl)c3)c(-c3ccc(Br)cc3)c12 [Compound 217] | – | 6000 to 25000 nM
Cc1cc(=O)oc2c1ccc1oc(C(=O)c3cccc(OCCN[C@@]45C[C@@H]6C[C@@H](C[C@@](O)(C6)C4)C5)c3)c(-c3ccccc3)c12 [Compound 183] | – | 6000 to 25000 nM
Cc1cc(=O)oc2c1ccc1oc(C(=O)c3cccc(OCCOCCOCCOCCCl)c3)c(-c3ccccc3)c12 [Compound 178] | – | 1000 to 5900 nM
O=Cc1cc(=O)oc2c1ccc1oc(C(=O)c3ccccc3)c(-c3ccccc3)c12 [Compound 10] | – | 1000 to 5900 nM
CCCCCOc1cccc(C(=O)c2oc3ccc4c(C)cc(=O)oc4c3c2-c2ccccc2)c1 [Compound 71] | 10 to 999 nM | –
CCCCCc1c(C(=O)c2ccccc2)oc2ccc3c(C)cc(=O)oc3c12 [Compound 156] | 10 to 999 nM | –
Cc1cc(=O)oc2c1ccc1oc(C(=O)c3cccc(OCCCN(C)C)c3)c(-c3ccccc3)c12 [Compound 87] | – | 6000 to 25000 nM
Cc1cc(=O)oc2c1ccc1oc(C(=O)c3ccc4ccccc4c3)c(-c3ccccc3)c12 [Compound 54] | 10 to 999 nM | –

SMILES | IC50 [1] | IC50 (ranges given)
Cc1cc(=O)oc2c1ccc1oc(C(=O)c3ccc([N+](=O)[O-])cc3)c(-c3ccccc3)c12 [Compound 51] | – | 6000 to 25000 nM
C=CCCCCOc1cccc(C(=O)c2oc3ccc4c(C)cc(=O)oc4c3c2-c2ccccc2)c1 [Compound 79] | 10 to 999 nM | –
O=C(c1ccccc1)c1oc2ccc3ccc(=O)oc3c2c1-c1ccccc1 [Compound 2] | – | 6000 to 25000 nM
Cc1cc(=O)oc2c1ccc1oc(C(=O)c3cccc(C(F)(F)F)c3)c(-c3ccccc3)c12 [Compound 36] | 10 to 999 nM | –
Cc1cc(=O)oc2c1ccc1oc(C(=O)c3cccc(OCCO[Si](C)(C)C(C)(C)C)c3)c(-c3ccccc3)c12 [Compound 189] | 10 to 999 nM | –
Cc1cc(=O)oc2c1ccc1oc(C(=O)c3ccccc3)c(-c3ccccc3F)c12 [Compound 132] | 10 to 999 nM | –
Cc1ccc(C(=O)c2oc3ccc4c(C)cc(=O)oc4c3c2-c2ccccc2)o1 [Compound 94] | – | 6000 to 25000 nM
Cc1cc(=O)oc2c1ccc1oc(C(=O)c3ccccc3)c(-c3ccc([N+](=O)[O-])cc3)c12 [Compound 145] | 10 to 999 nM | –
CCCCCCc1c(C(=O)c2ccccc2)oc2ccc3c(C)cc(=O)oc3c12 [Compound 157] | 10 to 999 nM | –
Cc1cc(=O)oc2c1ccc1oc(C(=O)c3cccc(OCCN4CCOCC4)c3)c(-c3ccccc3)c12 [Compound 80] | – | 1000 to 5900 nM
Cc1cc(=O)oc2c1ccc1oc(C(=O)c3cccc(OCCN4CCc5ccccc5C4)c3)c(-c3ccccc3)c12 [Compound 240] | – | 1000 to 5900 nM
Cc1cc(=O)oc2c1ccc1[nH]c3ccccc3c12 [Compound 231] | – | 6000 to 25000 nM
Cc1cc(=O)oc2c1ccc1oc(C(=O)c3ccccc3)c(-c3ccccc3Cl)c12 [Compound 135] | 10 to 999 nM | –
Cc1cc(=O)oc2c1ccc1oc(C(=O)c3ccc([N+](=O)[O-])cc3)c(-c3ccc(Br)cc3)c12 [Compound 216] | – | 6000 to 25000 nM
CCOc1cccc(C(=O)c2oc3ccc4c(C)cc(=O)oc4c3c2-c2ccccc2)c1 [Compound 68] | 10 to 999 nM | –
Cc1cc(=O)oc2c1ccc1oc(C(=O)c3ccc(O)cc3)c(-c3ccccc3)c12 [Compound 34] | – | 1000 to 5900 nM
Cc1cc(=O)oc2c1ccc1oc(C(=O)c3ccccc3F)c(-c3ccccc3)c12 [Compound 44] | 10 to 999 nM | –
Cc1cc(=O)oc2c1ccc1oc(C(=O)c3cccc(OC(=O)C#Cc4ccccc4)c3)c(-c3ccccc3)c12 [Compound 201] | – | 1000 to 5900 nM
Cc1cc(=O)oc2c1ccc1oc(C(=O)c3cccc(OCCCCCO)c3)c(-c3ccccc3)c12 [Compound 187] | – | 1000 to 5900 nM
Cc1cc(=O)oc2c1ccc1oc(C(=S)c3ccccc3)c(-c3ccccc3)c12 [Compound 166] | 10 to 999 nM | –
Cc1cc(=O)oc2c1ccc1oc(C(=O)c3ccccc3)c(-c3cc(F)cc(F)c3)c12 [Compound 148] | 10 to 999 nM | –
Cc1cc(=O)oc2c1ccc1oc(C(=O)c3ccccn3)c(-c3ccccc3)c12 [Compound 115] | 10 to 999 nM | –
Cc1cc(=O)oc2c1ccc1oc(C(=O)c3cccc(OCCCCCCO)c3)c(-c3ccccc3)c12 [Compound 188] | 10 to 999 nM | –
